Source: patent US20070167450A1, “Agent for treating chronic pelvic pain syndrome” (Astellas Pharma Inc., priority 2003, published 2007)

Legend:
[1] = system: Rat Antigen-Induced Cystitis Model; assay: Rat antigen-induced cystitis model: peroxidase activity in bladder extract; type: in vivo, Brown Norway (BN) female rats; settings: bladder removed after 24 hours, saline group 0%, control group 100%
Description: Efficacy of PDE 4 Inhibitors in Rat Antigen-Induced Cystitis Model
Antigen sensitization was carried out by intraperitoneally administering physiological saline containing ovalbumin (OA, 1 mg/ml)-aluminum hydroxide gel (Alum, 20 mg/ml) to Brown Norway (BN) female rats, at a dose of 1 ml per animal for 3 continuous days. After completion of the sensitization, a urethral catheter was attached to each animal under anesthesia, 3% OA/physiological saline was injected into the bladder to induce cystitis, and the resulting animals were used as the control group. Also, a group in which physiological saline was injected into the bladder of each sensitized rat was used as the physiological saline group. A group in which compound A (3 mg/kg), roflumilast (3 mg/kg) or cilomilast (30 mg/kg) was orally administered 1 hour before the intravesical antigen injection was used as a compound A administration group, a roflumilast administration group or a cilomilast administration group. After 24 hours of the intravesical antigen injection, the bladder was removed under pentobarbital anesthesia, and bladder extract was prepared in accordance with the method of Malley et al. (Physiological Genomics, (USA), 2002, vol. 9, no. 1, pp. 5-13). Peroxidase activity in the bladder extract was measured in accordance with the method of Bradley et al. (The Journal of Investigative Dermatology, (England), March 1982, vol. 78, no. 3, pp. 206-9) using human myeloperoxidase (manufactured by Sigma) as the standard, and the results were expressed by defining the peroxidase activity of the physiological saline group as 0%, and the peroxidase activity of the control group as 100%.
When antigen-induced cystitis was caused by carrying out antigen injection into the bladder of each of the sensitized BN rats, and peroxidase activity in the bladder tissue was measured as one of the indexes of cystitis, increase in the peroxidase activity in the bladder tissue was found in the control group. […]

[2] = system: Rat Hydrochloric Acid-Induced Cystitis Model; assay: Rat hydrochloric acid-induced cystitis model: intravesical pressure recording; type: in vivo, Brown Norway (BN) female rats; settings: 1 mg/kg orally once a day for 10 days after 0.4 N HCl into the bladder; measured after 11 days under urethane anesthesia
Description: Efficacy of PDE 4 Inhibitors in Rat Hydrochloric Acid-Induced Cystitis Model
A bladder disorder was induced by attaching a urethral catheter to each of Brown Norway (BN) female rats under ether anesthesia and injecting 0.4 N hydrochloric acid into the bladder (0.15 ml per one rat). Starting on the next of the bladder disorder induction, the compound A (1 mg/kg) or a vehicle (0.5% methyl cellulose aqueous solution) was orally administered once a day for 10 days, and respectively used as a compound A administration group and a control group. Also, a group in which physiological saline was injected into the bladder (0.15 ml per one rat), and the vehicle was orally administered once a day for 10 days starting on the next day, was used as a physiological saline group. After 11 days of the bladder disorder induction, each rat was fixed in the supine position under urethane anesthesia and equipped with a urethral catheter, and via its three-way cock, one end was used as the injection passage and the other end was connected to a pressure transducer (DX-312, manufactured by NIHON KOHDEN). Physiological saline was continuously injected into the bladder (50 μl/min) using an infusion pump (model 22, Harvard), and the intravesical pressure at that time was amplified by a pre-amplifier (AP-621G, manufactured by NIHON KOHDEN) and recorded using a recorder. […] In comparison with this, in the case of the control group, increase in the resting time intravesical pressure was observed, but increase in the bladder contraction pressure at the time of micturition was hardly found, and micturition frequency was high. In the compound A administration group, increase of the resting time intravesical pressure was inhibited, and increase in the intravesical pressure accompanied by the micturition reflex was also observed.

[3] = 3 mg/kg orally 1 hour before intravesical antigen (OA) injection

Q: Which “inhibition of the increase of peroxidase activity in the bladder tissue” value ([1]; 30 mg/kg orally 1 hour before intravesical antigen (OA) injection) does the source give for `COc1ccc([C@]2(C#N)CC[C@@H](C(=O)O)CC2)cc1OC1CCCC1` [cilomilast] here?
A: 68%

Q: For `CCn1c(=O)c(CCC(=O)O)c(-c2cccc(Cl)c2)c2ccc(C)nc21` [compound A, 3-[4-(3-chlorophenyl)-1-ethyl-7-methyl-2-oxo-1,2-dihydro-1,8-naphthyridin-3-yl]propanoic acid], which “inhibition of the increase of peroxidase activity in the bladder tissue” value [1, 3] is on record?
A: 72%

Q: And the “increase in the intravesical pressure accompanied by the micturition reflex” value [2]?
A: observed

Q: And the “increase of the resting time intravesical pressure” value [2]?
A: inhibited

Q: And the “interval of the micturition reflex” value [2]?
A: almost the same as that of the physiological saline administration group

Q: Which “inhibition of the increase of peroxidase activity in the bladder tissue” value [1, 3] does the source give for `O=C(Nc1c(Cl)cncc1Cl)c1ccc(OC(F)F)c(OCC2CC2)c1` [roflumilast] here?
A: 79%
